What all share (assay type): cell-based
Test [1] addresses T1, human TLR7 (Homo sapiens, UniProt Q9NYK1).
T1 construct: host or cells: HEK-Blue cells
T1 sequence (Q9NYK1 27-1049): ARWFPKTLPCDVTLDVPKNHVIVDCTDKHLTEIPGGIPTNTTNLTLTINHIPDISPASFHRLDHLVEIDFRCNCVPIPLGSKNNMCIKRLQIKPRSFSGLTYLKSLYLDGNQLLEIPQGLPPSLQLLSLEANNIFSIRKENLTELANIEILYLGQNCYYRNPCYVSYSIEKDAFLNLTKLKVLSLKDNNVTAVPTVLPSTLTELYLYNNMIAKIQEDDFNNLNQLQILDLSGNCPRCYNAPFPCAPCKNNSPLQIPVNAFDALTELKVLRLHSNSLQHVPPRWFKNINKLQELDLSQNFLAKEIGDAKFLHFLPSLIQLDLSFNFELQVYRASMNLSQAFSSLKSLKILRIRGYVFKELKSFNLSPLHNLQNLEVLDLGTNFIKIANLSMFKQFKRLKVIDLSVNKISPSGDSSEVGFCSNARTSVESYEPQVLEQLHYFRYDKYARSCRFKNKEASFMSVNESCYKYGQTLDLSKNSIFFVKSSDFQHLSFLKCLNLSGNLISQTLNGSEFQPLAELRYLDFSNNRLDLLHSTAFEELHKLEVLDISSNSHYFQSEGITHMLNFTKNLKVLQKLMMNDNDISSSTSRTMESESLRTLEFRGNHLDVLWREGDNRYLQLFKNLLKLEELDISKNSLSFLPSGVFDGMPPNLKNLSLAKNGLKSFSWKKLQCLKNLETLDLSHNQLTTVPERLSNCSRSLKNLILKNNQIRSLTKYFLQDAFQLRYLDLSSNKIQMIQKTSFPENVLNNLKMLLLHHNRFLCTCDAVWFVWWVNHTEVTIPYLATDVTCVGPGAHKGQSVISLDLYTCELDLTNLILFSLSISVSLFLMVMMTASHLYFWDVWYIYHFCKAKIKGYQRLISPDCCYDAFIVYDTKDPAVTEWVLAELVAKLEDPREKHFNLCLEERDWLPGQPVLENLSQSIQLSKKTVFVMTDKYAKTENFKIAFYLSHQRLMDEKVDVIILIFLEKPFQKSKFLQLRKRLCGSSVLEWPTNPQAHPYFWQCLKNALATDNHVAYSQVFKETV
As to the kind of experiment: TLR7 inhibition reporter assay (HEK-Blue cells, SEAP reporter, gardiquimod stimulation). Particulars: HEK-Blue cells overexpressing human TLR7, SEAP reporter, gardiquimod 7.5 μM. The gist of the method:
(§1)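 Cells were pre-treated 30 min at room temperature with compound (final 0.05 nM–50 μM), then stimulated with gardiquimod 7.5 μM (TLR7), R848 15.9 μM (TLR8) or ODN2006 5 nM (TLR9). SEAP was read after 22 h at 37° C; percent inhibition scaled between agonist+DMSO and known-inhibitor wells.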

The target in test [2] is T2, human TLR8 (Homo sapiens, UniProt Q9NR97).
T2 construct: host or cells: HEK-Blue cells
T2 sequence (Q9NR97 27-1041): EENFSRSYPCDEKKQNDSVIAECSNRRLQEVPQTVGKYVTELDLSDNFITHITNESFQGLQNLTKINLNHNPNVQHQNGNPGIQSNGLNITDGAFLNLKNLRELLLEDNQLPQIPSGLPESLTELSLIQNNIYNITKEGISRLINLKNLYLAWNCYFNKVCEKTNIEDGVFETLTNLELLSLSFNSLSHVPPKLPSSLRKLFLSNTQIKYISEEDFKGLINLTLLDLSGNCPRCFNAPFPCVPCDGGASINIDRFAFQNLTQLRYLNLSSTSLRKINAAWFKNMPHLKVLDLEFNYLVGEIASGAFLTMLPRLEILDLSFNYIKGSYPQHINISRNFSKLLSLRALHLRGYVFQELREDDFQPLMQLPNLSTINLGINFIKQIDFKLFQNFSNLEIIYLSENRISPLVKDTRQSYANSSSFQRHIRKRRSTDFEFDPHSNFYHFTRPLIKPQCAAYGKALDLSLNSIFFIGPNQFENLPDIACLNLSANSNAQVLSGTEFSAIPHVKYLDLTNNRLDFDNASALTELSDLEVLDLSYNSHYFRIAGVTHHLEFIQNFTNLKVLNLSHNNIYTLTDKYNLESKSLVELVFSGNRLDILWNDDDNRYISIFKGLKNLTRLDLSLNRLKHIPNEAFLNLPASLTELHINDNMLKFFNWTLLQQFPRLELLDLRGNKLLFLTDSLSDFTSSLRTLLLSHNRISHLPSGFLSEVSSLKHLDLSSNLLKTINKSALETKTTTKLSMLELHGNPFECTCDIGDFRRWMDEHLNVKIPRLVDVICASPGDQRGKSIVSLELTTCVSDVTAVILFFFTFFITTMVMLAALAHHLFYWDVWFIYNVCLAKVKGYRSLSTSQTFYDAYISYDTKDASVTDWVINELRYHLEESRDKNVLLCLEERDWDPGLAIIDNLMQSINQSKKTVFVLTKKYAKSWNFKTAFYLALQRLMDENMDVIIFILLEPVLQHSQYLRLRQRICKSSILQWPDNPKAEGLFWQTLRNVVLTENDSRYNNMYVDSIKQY
As to the kind of experiment: TLR8 inhibition reporter assay (HEK-Blue cells, SEAP reporter, R848 stimulation). Particulars: HEK-Blue cells overexpressing human TLR8, SEAP reporter, R848 15.9 μM. The gist of the method: as §1

Test [3] concerns the target T3, human TLR9 (Homo sapiens, UniProt Q9NR96).
T3 construct: host or cells: HEK-Blue cells
T3 sequence (Q9NR96 26-1032): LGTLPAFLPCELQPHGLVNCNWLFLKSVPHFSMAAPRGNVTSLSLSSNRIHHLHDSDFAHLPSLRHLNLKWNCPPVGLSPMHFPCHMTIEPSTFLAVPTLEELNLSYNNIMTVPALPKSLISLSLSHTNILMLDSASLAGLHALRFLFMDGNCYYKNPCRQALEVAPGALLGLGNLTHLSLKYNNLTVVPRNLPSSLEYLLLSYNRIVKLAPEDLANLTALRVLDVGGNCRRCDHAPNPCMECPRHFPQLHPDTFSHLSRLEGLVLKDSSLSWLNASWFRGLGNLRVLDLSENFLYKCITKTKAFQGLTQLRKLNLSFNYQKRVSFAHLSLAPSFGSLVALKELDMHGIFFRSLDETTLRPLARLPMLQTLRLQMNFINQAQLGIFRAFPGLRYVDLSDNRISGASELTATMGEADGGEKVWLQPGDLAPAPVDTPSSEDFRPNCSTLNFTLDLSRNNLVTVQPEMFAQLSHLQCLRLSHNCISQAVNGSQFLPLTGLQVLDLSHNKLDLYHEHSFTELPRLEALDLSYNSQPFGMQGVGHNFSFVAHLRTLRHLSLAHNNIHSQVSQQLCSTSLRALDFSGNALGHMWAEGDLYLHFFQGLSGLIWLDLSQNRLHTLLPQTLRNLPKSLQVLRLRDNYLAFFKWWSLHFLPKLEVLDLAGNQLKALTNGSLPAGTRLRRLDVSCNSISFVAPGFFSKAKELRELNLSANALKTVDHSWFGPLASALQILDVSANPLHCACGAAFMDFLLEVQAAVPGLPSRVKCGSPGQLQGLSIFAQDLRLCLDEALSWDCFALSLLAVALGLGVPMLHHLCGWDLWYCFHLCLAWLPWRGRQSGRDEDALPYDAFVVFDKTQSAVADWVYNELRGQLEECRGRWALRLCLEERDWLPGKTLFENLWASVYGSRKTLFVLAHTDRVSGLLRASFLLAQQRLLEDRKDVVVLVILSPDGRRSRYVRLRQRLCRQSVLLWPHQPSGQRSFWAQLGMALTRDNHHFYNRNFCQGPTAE
The experiment in a line: TLR9 inhibition reporter assay (HEK-Blue cells, SEAP reporter, ODN2006 stimulation). Particulars: HEK-Blue cells overexpressing human TLR9, SEAP reporter, ODN2006 5 nM. The gist of the method:
as §1

Structures are written as SMILES. Counter-ions that a name gives are not always drawn. Where only a bound is given, the exact number is not on record here.

Experimental findings from patent US20230117470A1, “SUBSTITUTED PYRAZOLE COMPOUNDS AS TOLL RECEPTOR INHIBITORS” (BRISTOL-MYERS SQUIBB COMPANY, priority 2019, published 2023) are described below.

A word on the IC50: it is the concentration needed to halve the response being measured. Read a high IC50 as lower potency.

Regarding `Cc1cc(-c2[nH]nc(C3CCN(C(=O)CCN(C)C)CC3)c2C(C)C)cn2ncnc12` [Example 208, 3-(dimethylamino)-1-(4-(4-isopropyl-5-(8-methyl-[1,2,4]triazolo[1,5-a]pyridin-6-yl)-1H-pyrazol-3-yl)piperidin-1-yl)propan-1-one], the IC50 in test [1] is 1 nM; in test [2], 0.52 nM; in test [3] it was 20000 nM.
Taken in the same sequence, the figures for `CNC(=O)CN1CCC(c2n[nH]c(-c3cc(C)c4ncnn4c3)c2C(C)C)CC1` [Example 211, 2-(4-(4-isopropyl-5-(8-methyl-[1,2,4]triazolo[1,5-a]pyridin-6-yl)-1H-pyrazol-3-yl)piperidin-1-yl)-N-methylacetamide] were 0.79 nM, 0.58 nM and 14300 nM.
Taken in the same sequence, the figures for `Cc1cc(-c2[nH]nc(-c3ccc4c(c3)CCNC4)c2C(C)C)cn2ncnc12` [Example 213, 6-(4-isopropyl-5-(8-methyl-[1,2,4]triazolo[1,5-a]pyridin-6-yl)-1H-pyrazol-3-yl)-1,2,3,4-tetrahydroisoquinoline, HCl] were 4.64 nM, 3.41 nM and 25500 nM.
In the case of `Cc1cc(-c2[nH]nc(-c3ccc4cnccc4c3)c2C(C)C)cn2ncnc12` [Example 214], the IC50 in test [1] worked out at 1.37 nM; in test [2], 0.39 nM; in test [3], 10300 nM.
Taken in the same sequence, the figures for `Cc1cc(-c2[nH]nc(-c3ccc4c(c3)CCNC4=O)c2C(C)C)cn2ncnc12` [Example 215] were 2.3 nM, 6 nM and 15000 nM.
For `Cc1cc(-c2[nH]nc(-c3ncc4c(n3)CNC4)c2C(C)C)cn2ncnc12` [Example 216], in that order: 0.72 nM, 1.02 nM and 6520 nM.
For `Cc1cc(-c2[nH]nc(-c3cc4n(n3)CCNC4)c2C(C)C)cn2ncnc12` [Example 217], in that order: 2.41 nM, 5.3 nM and 5870 nM.
Regarding `Cc1cc(-c2[nH]nc(-c3nc4c(s3)CNCC4)c2C(C)C)cn2ncnc12` [Example 218], the IC50 in test [1] was found to be 1.44 nM; in test [2], 18.6 nM; in test [3] it was 35900 nM.
For `Cc1cc(-c2[nH]nc(-c3cn4c(n3)CNCC4)c2C(C)C)cn2ncnc12` [Example 219], in that order: 637 nM, 713 nM and 46200 nM.
In the case of `COc1cc(-c2[nH]nc(-c3nc4c(s3)CNCC4)c2C(C)C)cn2ncnc12` [Example 220], the IC50 in test [1] was 1.4 nM; in test [2], 4.38 nM; in test [3], above 50000 nM.
`Cc1cc(-c2[nH]nc(-c3nc4c(s3)CCNC4)c2C(C)C)cn2ncnc12` [Example 221]: the IC50 in test [1] was 3.08 nM; in test [2], 33.3 nM; in test [3], above 50000 nM.
For `Cc1cc(-c2[nH]nc(-c3ncc4c(n3)CCNC4)c2C(C)C)cn2ncnc12` [Example 222], in that order: 0.75 nM, 1.94 nM and 30400 nM.
For `Cc1cc(-c2[nH]nc(-c3ccncc3)c2C(C)C)cn2ncnc12` [Example 223], in that order: 8.65 nM, 10.3 nM and 14300 nM.
Taken in the same sequence, the figures for `Cc1cc(-c2[nH]nc(-c3cccnc3)c2C(C)C)cn2ncnc12` [Example 224] were 0.56 nM, 0.63 nM and 9030 nM.
Take `Cc1cc(-c2[nH]nc(-c3cncc(N)c3)c2C(C)C)cn2ncnc12` [Example 225]: the IC50 in test [1] was 2.56 nM; in test [2], 3.94 nM; in test [3] it was 5490 nM.
As to `Cc1cc(-c2[nH]nc(-c3cnc(N)cn3)c2C(C)C)cn2ncnc12` [Example 226], the IC50 was 0.35 nM in test [1], 0.41 nM in test [2] and 6780 nM in test [3].
Taken in the same sequence, the figures for `Cc1cc(-c2[nH]nc(-c3ccc(N)nc3)c2C(C)C)cn2ncnc12` [Example 227] were 4.43 nM, 11.4 nM and 18200 nM.
Taken in the same sequence, the figures for `Cc1cc(-c2[nH]nc(-c3cnc(N)nc3)c2C(C)C)cn2ncnc12` [Example 228] were 2.18 nM, 1.46 nM and 8860 nM.
For `Cc1cc(-c2[nH]nc(-c3ccc(C(N)=O)cc3)c2C(C)C)cn2ncnc12` [Example 229], in that order: 7.1 nM, 3.71 nM and 4960 nM.
For the molecule `Cc1cc(-c2[nH]nc(-c3cnc4c(c3)CNCC4)c2C(C)C)cn2ncnc12` [Example 230], the IC50 in test [1] was found to be 4.92 nM; in test [2], 1.5 nM; in test [3], 43500 nM.
For `Cc1cc(-c2[nH]nc(-c3ccc4c(c3)CNCC4)c2C(C)C)cn2ncnc12` [Example 231], in that order: 6.32 nM, 1.19 nM and 49500 nM.
